Laboratory results: paper PMC5622171 (Nature Communications, 2017)

How the values were obtained:
Assay in all cases: KINOMEscan kinase profiling
Format in all cases: binding
ABL1-phosphorylated = biological target: T1, ABL1-phosphorylated (Homo sapiens, UniProt P00519); conditions: read-out: %Inhibition by 10 μM SPA70
T1 construct: purchased DiscoverX (Ambit Biosciences) KINOMEscan
In short: (§1)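 KINOMEscan profiling followed a published protocol. Kinases whose inhibition exceeded a set cut-off were then tested in a dilution series beginning at 30 µM.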

ACVRL1 = biological target: T2, ACVRL1 (Homo sapiens, UniProt P37023); conditions: read-out: %Inhibition by 10 μM SPA70
T2 construct: purchased DiscoverX (Ambit Biosciences) KINOMEscan
In short: as §1

ANKK1 = biological target: T3, ANKK1 (Homo sapiens, UniProt Q8NFD2); conditions: read-out: %Inhibition by 10 μM SPA70
T3 construct: purchased DiscoverX (Ambit Biosciences) KINOMEscan
In short: as §1

BLK = biological target: T4, BLK (Homo sapiens, UniProt P51451); conditions: read-out: %Inhibition by 10 μM SPA70
T4 construct: purchased DiscoverX (Ambit Biosciences) KINOMEscan
In short: as §1

BMPR2 = biological target: T5, BMPR2 (Homo sapiens, UniProt Q13873)
T5 construct: purchased DiscoverX (Ambit Biosciences) KINOMEscan
In short: as §1

BRAF = biological target: T6, BRAF (Homo sapiens, UniProt P15056); conditions: read-out: %Inhibition by 10 μM SPA70
T6 construct: purchased DiscoverX (Ambit Biosciences) KINOMEscan
In short: as §1

CAMK1 = biological target: T7, CAMK1 (Homo sapiens, UniProt Q14012); conditions: read-out: %Inhibition by 10 μM SPA70
T7 construct: purchased DiscoverX (Ambit Biosciences) KINOMEscan
In short: as §1

CAMK2A = biological target: T8, CAMK2A (Homo sapiens, UniProt Q9UQM7); conditions: read-out: %Inhibition by 10 μM SPA70
T8 construct: purchased DiscoverX (Ambit Biosciences) KINOMEscan
In short: as §1

CDK11 = biological target: T9, CDK11 (Homo sapiens, UniProt Q9BWU1)
T9 construct: purchased DiscoverX (Ambit Biosciences) KINOMEscan
In short: as §1

CDK3 = biological target: T10, CDK3 (Homo sapiens, UniProt Q00526)
T10 construct: purchased DiscoverX (Ambit Biosciences) KINOMEscan
T10 sequence (Q00526 whole entry): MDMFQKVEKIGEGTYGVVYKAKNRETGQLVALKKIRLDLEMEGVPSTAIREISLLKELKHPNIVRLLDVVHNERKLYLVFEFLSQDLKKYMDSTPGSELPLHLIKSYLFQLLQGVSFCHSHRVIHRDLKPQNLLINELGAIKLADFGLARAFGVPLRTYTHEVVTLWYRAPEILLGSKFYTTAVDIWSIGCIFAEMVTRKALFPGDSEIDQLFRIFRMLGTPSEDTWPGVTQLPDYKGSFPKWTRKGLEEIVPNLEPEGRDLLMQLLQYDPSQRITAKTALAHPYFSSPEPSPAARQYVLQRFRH
In short: as §1

CDK4-cyclinD3 = biological target: T11, CDK4-cyclinD3 (Homo sapiens, UniProt P11802); conditions: read-out: %Inhibition by 10 μM SPA70
T11 construct: purchased DiscoverX (Ambit Biosciences) KINOMEscan
In short: as §1

CDK7 = biological target: T12, CDK7 (Homo sapiens, UniProt P50613); conditions: read-out: %Inhibition by 10 μM SPA70
T12 construct: purchased DiscoverX (Ambit Biosciences) KINOMEscan
In short: as §1

CDKL5 = biological target: T13, CDKL5 (Homo sapiens, UniProt O76039); conditions: read-out: %Inhibition by 10 μM SPA70
T13 construct: purchased DiscoverX (Ambit Biosciences) KINOMEscan
In short: as §1

CSNK1A1L = biological target: T14, CSNK1A1L (Homo sapiens, UniProt Q8N752); conditions: read-out: %Inhibition by 10 μM SPA70
T14 construct: purchased DiscoverX (Ambit Biosciences) KINOMEscan
T14 sequence (Q8N752 whole entry): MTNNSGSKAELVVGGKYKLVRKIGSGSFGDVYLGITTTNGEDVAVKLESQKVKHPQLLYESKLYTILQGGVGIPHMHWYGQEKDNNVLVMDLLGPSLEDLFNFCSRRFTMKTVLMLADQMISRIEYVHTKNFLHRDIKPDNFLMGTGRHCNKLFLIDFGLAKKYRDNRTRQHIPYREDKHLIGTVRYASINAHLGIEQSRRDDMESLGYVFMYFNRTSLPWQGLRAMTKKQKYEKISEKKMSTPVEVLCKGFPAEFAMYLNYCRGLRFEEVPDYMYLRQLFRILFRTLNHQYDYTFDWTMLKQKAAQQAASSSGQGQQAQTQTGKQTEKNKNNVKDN
In short: as §1

EPHA1 = biological target: T15, EPHA1 (Homo sapiens, UniProt P21709); conditions: read-out: %Inhibition by 10 μM SPA70
T15 construct: purchased DiscoverX (Ambit Biosciences) KINOMEscan
In short: as §1

EPHB2 = biological target: T16, EPHB2 (Homo sapiens, UniProt P29323)
T16 construct: purchased DiscoverX (Ambit Biosciences) KINOMEscan
In short: as §1

EPHB6 = biological target: T17, EPHB6 (Homo sapiens, UniProt O15197); conditions: read-out: %Inhibition by 10 μM SPA70
T17 construct: purchased DiscoverX (Ambit Biosciences) KINOMEscan
In short: as §1

MAP4K3 = biological target: T18, MAP4K3 (Homo sapiens, UniProt Q8IVH8)
T18 construct: purchased DiscoverX (Ambit Biosciences) KINOMEscan
In short: as §1

MEK3 = biological target: T19, MEK3 (Homo sapiens, UniProt P46734); conditions: read-out: %Inhibition by 10 μM SPA70
T19 construct: purchased DiscoverX (Ambit Biosciences) KINOMEscan
In short: as §1

MLCK = biological target: T20, MLCK (Homo sapiens, UniProt Q32MK0); conditions: read-out: %Inhibition by 10 μM SPA70
T20 construct: purchased DiscoverX (Ambit Biosciences) KINOMEscan
In short: as §1

MLK1 = biological target: T21, MLK1 (Homo sapiens, UniProt P80192); conditions: read-out: %Inhibition by 10 μM SPA70
T21 construct: purchased DiscoverX (Ambit Biosciences) KINOMEscan
T21 sequence (P80192 whole entry): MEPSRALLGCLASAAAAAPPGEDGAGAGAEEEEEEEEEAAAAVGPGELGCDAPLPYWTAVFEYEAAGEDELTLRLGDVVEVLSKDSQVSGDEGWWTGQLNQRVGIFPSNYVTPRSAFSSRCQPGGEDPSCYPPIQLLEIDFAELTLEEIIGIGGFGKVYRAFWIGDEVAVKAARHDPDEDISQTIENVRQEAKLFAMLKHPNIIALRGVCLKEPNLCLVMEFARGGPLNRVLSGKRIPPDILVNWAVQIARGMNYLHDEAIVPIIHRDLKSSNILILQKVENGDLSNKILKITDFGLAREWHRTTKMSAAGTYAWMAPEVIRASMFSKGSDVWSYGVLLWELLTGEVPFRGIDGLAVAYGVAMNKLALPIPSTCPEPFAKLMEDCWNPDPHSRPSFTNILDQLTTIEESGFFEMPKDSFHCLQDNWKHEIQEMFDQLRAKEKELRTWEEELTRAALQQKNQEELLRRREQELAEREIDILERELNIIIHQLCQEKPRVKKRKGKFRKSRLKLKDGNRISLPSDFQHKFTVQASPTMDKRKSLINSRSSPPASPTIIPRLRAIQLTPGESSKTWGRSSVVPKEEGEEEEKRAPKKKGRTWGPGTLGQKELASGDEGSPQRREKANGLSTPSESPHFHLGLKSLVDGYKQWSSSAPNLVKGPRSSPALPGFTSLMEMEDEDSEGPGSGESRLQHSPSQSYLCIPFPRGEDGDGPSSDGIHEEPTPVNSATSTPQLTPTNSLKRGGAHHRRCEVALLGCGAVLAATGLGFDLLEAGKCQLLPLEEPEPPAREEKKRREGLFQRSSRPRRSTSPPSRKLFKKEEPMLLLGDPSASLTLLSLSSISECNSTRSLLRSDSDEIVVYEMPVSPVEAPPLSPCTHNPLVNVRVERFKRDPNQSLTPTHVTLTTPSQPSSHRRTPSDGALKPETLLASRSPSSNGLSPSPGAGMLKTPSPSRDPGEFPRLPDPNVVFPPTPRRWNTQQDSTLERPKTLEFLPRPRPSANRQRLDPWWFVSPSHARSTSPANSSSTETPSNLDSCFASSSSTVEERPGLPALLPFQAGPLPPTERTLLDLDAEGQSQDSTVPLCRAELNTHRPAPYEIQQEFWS
In short: as §1

MYO3B = biological target: T22, MYO3B (Homo sapiens, UniProt Q8WXR4); conditions: read-out: %Inhibition by 10 μM SPA70
T22 construct: purchased DiscoverX (Ambit Biosciences) KINOMEscan
T22 sequence (Q8WXR4 whole entry): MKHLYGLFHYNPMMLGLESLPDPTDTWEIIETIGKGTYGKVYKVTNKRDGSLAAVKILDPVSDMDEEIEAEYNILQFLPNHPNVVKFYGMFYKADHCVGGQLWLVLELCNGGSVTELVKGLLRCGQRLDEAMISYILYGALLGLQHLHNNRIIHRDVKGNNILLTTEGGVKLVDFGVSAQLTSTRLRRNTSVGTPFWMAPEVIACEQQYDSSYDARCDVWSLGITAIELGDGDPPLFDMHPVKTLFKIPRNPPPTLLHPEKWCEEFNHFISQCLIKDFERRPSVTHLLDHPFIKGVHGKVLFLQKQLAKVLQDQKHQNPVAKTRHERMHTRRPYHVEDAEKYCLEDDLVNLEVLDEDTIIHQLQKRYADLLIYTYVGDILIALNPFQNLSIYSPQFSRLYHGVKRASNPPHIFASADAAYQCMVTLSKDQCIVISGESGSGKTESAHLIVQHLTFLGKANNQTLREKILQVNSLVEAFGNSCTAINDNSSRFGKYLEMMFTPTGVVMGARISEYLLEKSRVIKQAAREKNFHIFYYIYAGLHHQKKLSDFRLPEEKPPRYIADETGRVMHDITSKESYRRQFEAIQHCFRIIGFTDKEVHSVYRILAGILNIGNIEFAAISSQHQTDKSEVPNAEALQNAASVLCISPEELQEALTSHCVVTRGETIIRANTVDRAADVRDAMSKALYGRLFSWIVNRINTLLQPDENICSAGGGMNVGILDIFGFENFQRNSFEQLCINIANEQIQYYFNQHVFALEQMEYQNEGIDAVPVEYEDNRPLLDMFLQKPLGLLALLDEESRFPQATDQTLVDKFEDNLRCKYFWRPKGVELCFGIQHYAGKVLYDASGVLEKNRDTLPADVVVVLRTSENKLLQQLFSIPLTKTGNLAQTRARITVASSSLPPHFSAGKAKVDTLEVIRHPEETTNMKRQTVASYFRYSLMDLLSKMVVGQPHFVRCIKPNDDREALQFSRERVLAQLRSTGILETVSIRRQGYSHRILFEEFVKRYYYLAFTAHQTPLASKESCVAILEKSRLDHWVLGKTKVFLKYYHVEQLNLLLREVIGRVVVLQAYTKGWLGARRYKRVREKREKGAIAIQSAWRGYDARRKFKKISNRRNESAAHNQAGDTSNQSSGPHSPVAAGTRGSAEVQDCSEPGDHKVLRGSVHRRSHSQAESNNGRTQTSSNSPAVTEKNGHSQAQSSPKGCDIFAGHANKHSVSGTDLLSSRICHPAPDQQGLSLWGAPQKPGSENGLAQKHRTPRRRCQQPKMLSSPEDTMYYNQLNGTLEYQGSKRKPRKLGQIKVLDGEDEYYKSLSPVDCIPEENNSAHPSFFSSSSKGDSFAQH
In short: as §1

NDR2 = biological target: T23, NDR2 (Homo sapiens, UniProt Q9Y2H1); conditions: read-out: %Inhibition by 10 μM SPA70
T23 construct: purchased DiscoverX (Ambit Biosciences) KINOMEscan
T23 sequence (Q9Y2H1 whole entry): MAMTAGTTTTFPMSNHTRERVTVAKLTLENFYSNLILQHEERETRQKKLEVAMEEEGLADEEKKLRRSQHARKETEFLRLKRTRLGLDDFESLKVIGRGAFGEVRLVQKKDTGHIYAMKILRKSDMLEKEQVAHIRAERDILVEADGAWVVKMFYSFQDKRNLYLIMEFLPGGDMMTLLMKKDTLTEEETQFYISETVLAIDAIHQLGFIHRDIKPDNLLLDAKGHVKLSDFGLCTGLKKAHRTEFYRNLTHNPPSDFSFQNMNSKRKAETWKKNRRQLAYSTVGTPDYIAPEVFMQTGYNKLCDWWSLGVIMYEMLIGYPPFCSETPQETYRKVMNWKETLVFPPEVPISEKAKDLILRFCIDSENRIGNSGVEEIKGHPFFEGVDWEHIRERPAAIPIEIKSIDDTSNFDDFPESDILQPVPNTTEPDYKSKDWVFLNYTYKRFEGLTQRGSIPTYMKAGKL
In short: as §1

NEK3 = biological target: T24, NEK3 (Homo sapiens, UniProt P51956); conditions: read-out: %Inhibition by 10 μM SPA70
T24 construct: purchased DiscoverX (Ambit Biosciences) KINOMEscan
In short: as §1

NEK5 = biological target: T25, NEK5 (Homo sapiens, UniProt Q6P3R8); conditions: read-out: %Inhibition by 10 μM SPA70
T25 construct: purchased DiscoverX (Ambit Biosciences) KINOMEscan
In short: as §1

PAK3 = biological target: T26, PAK3 (Homo sapiens, UniProt O75914); conditions: read-out: %Inhibition by 10 μM SPA70
T26 construct: purchased DiscoverX (Ambit Biosciences) KINOMEscan
In short: as §1

PIP5K1C = biological target: T27, PIP5K1C (Homo sapiens, UniProt O60331)
T27 construct: purchased DiscoverX (Ambit Biosciences) KINOMEscan
In short: as §1

PKN2 = biological target: T28, PKN2 (Homo sapiens, UniProt Q16513); conditions: read-out: %Inhibition by 10 μM SPA70
T28 construct: purchased DiscoverX (Ambit Biosciences) KINOMEscan
In short: as §1

PRKCI = biological target: T29, PRKCI (Homo sapiens, UniProt P41743); conditions: read-out: %Inhibition by 10 μM SPA70
T29 construct: purchased DiscoverX (Ambit Biosciences) KINOMEscan
T29 sequence (P41743 whole entry): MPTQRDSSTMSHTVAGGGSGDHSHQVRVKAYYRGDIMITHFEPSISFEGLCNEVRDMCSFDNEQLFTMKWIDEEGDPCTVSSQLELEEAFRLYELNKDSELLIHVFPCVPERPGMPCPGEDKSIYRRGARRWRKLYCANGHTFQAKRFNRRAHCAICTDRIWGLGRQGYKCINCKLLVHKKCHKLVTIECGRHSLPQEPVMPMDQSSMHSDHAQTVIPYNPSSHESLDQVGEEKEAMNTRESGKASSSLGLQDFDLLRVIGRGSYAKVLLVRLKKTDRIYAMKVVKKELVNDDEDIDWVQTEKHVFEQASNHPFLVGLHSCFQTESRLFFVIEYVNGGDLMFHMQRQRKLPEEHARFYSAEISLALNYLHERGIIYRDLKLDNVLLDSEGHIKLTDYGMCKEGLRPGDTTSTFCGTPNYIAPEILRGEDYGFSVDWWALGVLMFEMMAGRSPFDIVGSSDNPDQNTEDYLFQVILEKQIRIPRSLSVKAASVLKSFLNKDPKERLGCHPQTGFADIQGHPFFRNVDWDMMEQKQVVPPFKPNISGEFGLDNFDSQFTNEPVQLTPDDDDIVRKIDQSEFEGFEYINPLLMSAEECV
In short: as §1

PRKCQ = biological target: T30, PRKCQ (Homo sapiens, UniProt Q04759); conditions: read-out: %Inhibition by 10 μM SPA70
T30 construct: purchased DiscoverX (Ambit Biosciences) KINOMEscan
In short: as §1

PRKD1 = biological target: T31, PRKD1 (Homo sapiens, UniProt Q15139); conditions: read-out: %Inhibition by 10 μM SPA70
T31 construct: purchased DiscoverX (Ambit Biosciences) KINOMEscan
In short: as §1

PRKG2 = biological target: T32, PRKG2 (Homo sapiens, UniProt Q13237); conditions: read-out: %Inhibition by 10 μM SPA70
T32 construct: purchased DiscoverX (Ambit Biosciences) KINOMEscan
In short: as §1

RIOK1 = biological target: T33, RIOK1 (Homo sapiens, UniProt Q9BRS2); conditions: read-out: %Inhibition by 10 μM SPA70
T33 construct: purchased DiscoverX (Ambit Biosciences) KINOMEscan
T33 sequence (Q9BRS2 whole entry): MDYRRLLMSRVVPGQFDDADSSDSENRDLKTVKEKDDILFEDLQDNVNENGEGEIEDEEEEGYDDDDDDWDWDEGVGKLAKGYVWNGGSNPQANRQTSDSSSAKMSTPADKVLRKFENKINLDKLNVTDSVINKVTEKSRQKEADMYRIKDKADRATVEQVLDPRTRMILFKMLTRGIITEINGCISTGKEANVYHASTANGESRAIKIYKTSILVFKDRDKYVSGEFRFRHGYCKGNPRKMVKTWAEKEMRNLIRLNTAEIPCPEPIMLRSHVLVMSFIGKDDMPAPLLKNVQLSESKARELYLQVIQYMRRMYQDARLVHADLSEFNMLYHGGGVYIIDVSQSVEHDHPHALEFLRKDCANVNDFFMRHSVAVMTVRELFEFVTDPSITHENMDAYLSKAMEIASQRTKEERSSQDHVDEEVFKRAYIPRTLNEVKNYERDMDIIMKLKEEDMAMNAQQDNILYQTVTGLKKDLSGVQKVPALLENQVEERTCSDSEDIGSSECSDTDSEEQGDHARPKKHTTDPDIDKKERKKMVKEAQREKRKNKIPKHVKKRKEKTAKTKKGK
In short: as §1

[1] = biological target: T34, RSK1(Kin.Dom.1-N-terminal) (Homo sapiens, UniProt Q15418); conditions: read-out: %Inhibition by 10 μM SPA70
T34 construct: RSK1(Kin.Dom.1-N-terminal); purchased DiscoverX (Ambit Biosciences) KINOMEscan
In short: as §1

[2] = biological target: T35, RSK3(Kin.Dom.1-N-terminal) (Homo sapiens, UniProt Q15349); conditions: read-out: %Inhibition by 10 μM SPA70
T35 construct: RSK3(Kin.Dom.1-N-terminal); purchased DiscoverX (Ambit Biosciences) KINOMEscan
In short: as §1

SNRK = biological target: T36, SNRK (Homo sapiens, UniProt Q9NRH2); conditions: read-out: %Inhibition by 10 μM SPA70
T36 construct: purchased DiscoverX (Ambit Biosciences) KINOMEscan
In short: as §1

STK35 = biological target: T37, STK35 (Homo sapiens, UniProt Q8TDR2); conditions: read-out: %Inhibition by 10 μM SPA70
T37 construct: purchased DiscoverX (Ambit Biosciences) KINOMEscan
In short: as §1

TIE1 = biological target: T38, TIE1 (Homo sapiens, UniProt P35590); conditions: read-out: %Inhibition by 10 μM SPA70
T38 construct: purchased DiscoverX (Ambit Biosciences) KINOMEscan
In short: as §1

TRKC = biological target: T39, TRKC (Homo sapiens, UniProt Q16288); conditions: read-out: %Inhibition by 10 μM SPA70
T39 construct: purchased DiscoverX (Ambit Biosciences) KINOMEscan
In short: as §1

[3] = biological target: T40, TYK2(JH1domain-catalytic) (Homo sapiens, UniProt P29597)
T40 construct: TYK2(JH1domain-catalytic); purchased DiscoverX (Ambit Biosciences) KINOMEscan
T40 sequence (P29597 871-1187 limits assumed): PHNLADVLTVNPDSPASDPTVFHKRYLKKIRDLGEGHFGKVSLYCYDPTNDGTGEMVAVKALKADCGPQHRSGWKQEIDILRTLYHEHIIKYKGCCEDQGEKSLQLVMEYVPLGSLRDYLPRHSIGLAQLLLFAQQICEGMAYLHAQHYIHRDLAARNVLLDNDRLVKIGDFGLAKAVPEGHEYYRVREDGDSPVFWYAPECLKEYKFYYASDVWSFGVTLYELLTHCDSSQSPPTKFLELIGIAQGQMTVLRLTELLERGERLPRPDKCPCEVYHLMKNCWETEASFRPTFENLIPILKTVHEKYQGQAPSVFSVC
In short: as §1

ZAP70 = biological target: T41, ZAP70 (Homo sapiens, UniProt P43403); conditions: read-out: %Inhibition by 10 μM SPA70
T41 construct: purchased DiscoverX (Ambit Biosciences) KINOMEscan
In short: as §1

COc1ccc(OC)c(-n2nnc(S(=O)(=O)c3ccc(C(C)(C)C)cc3)c2C)c1 [SPA70] gave an inhibition at 10 µM (ABL1-phosphorylated) of 19%, an inhibition at 10 µM (ACVRL1) of 6% and an inhibition at 10 µM (ANKK1) of 0%. The inhibition at 10 µM (BLK) was 11%, the “%Inhibition by 10 μM SPA70” value (BMPR2) was 10% and the inhibition at 10 µM (BRAF) was 0%. The inhibition at 10 µM (CAMK1) was 0%, the inhibition at 10 µM (CAMK2A) was 0% and the “%Inhibition by 10 μM SPA70” value (CDK11) was 0%. The “%Inhibition by 10 μM SPA70” value (CDK3) was 3%, the inhibition at 10 µM (CDK4-cyclinD3) was 19% and the inhibition at 10 µM (CDK7) was 19%. The inhibition at 10 µM (CDKL5) was 8%, the inhibition at 10 µM (CSNK1A1L) was 0% and the inhibition at 10 µM (EPHA1) was 0%. For the same compound, the “%Inhibition by 10 μM SPA70” value (EPHB2) was 0%, the inhibition at 10 µM (EPHB6) was 0% and the “%Inhibition by 10 μM SPA70” value (MAP4K3) was 0%. It also gave an inhibition at 10 µM (MEK3) of 0%, an inhibition at 10 µM (MLCK) of 0% and an inhibition at 10 µM (MLK1) of 0%. For the same compound, the inhibition at 10 µM (MYO3B) was 5%, the inhibition at 10 µM (NDR2) was 0% and the inhibition at 10 µM (NEK3) was 0%. The inhibition at 10 µM (NEK5) was 0%, the inhibition at 10 µM (PAK3) was 0% and the “%Inhibition by 10 μM SPA70” value (PIP5K1C) was 0%. It also gave an inhibition at 10 µM (PKN2) of 0%, an inhibition at 10 µM (PRKCI) of 0% and an inhibition at 10 µM (PRKCQ) of 4%. The inhibition at 10 µM (PRKD1) was 0%, the inhibition at 10 µM (PRKG2) was 12% and the inhibition at 10 µM (RIOK1) was 47%. The inhibition at 10 µM [1] was 40%, the inhibition at 10 µM [2] was 0% and the inhibition at 10 µM (SNRK) was 0%. It also gave an inhibition at 10 µM (STK35) of 0%, an inhibition at 10 µM (TIE1) of 0% and an inhibition at 10 µM (TRKC) of 0%. For the same compound, the “%Inhibition by 10 μM SPA70” value [3] was 0% and the inhibition at 10 µM (ZAP70) was 22%.
